Values after ≈ are worked out from the molar mass of the structure shown. Read-outs that look alike come from different tables or passages of the source.
What was measured:
Format in all cases: cell-based
[1] = tested on: Prevotella intermedia JCM 6322; test: MIC by agar plate dilution method, Pt-1; settings: for MIC: Prevotella intermedia, read-out: MIC Pt-1 (paradentosis-related bacteria)
Description: (§1) The minimum inhibitory activities of the antimicrobial flavors of the invention on anaerobic oral bacteria were measured by an agar plate dilution method.
(§2) All the test strains were obtained from Riken (The Institute of Physical and Chemical Research). The names and abbreviations of the strains are shown in Table 1 below (The abbreviations are used in the following description).
(§3) Each test microorganism kept frozen (−80° C.) in glycerol at a concentration of 25% was thawed. A 100 μl portion of the suspension was inoculated into 10 ml of a liquid medium. A Gifu university anaerobic medium (GAM) (Nissui Pharmaceutical Co., Ltd) having added thereto Hemin (Tokyo Kasei) and Menadione (Sigma) was used for Su-1 and Fn-1. Schaedler Broth (BBL) having added thereto Hemin and Menadione was used for the other strains. The culture was anaerobically incubated at 37° C. for 72 hours by using BBL Gas Pack Anaerobic System. After the cultivation, the microbial cell suspension of Su-1 was 10-fold diluted to prepare an inoculum. The cultures of Fn-1 and Pg-1 were used as such as an inoculum. The cultures of Pt-1, Aa-1, and Av-1 were subjected to centrifugation, and the separated microbial cells were suspended in 2 ml of sterilized physiological saline to prepare the respective inoculums.
(§4) An agar medium prepared by adding 2% agar (Difco), Hemin, and Menadione to Trypticase Soy Broth (BBL) was used. A test sample (antimicrobial flavor) was dissolved in ethanol to prepare 2-fold serial dilutions. To 10 ml of the agar medium was added 100 μl of each dilution and stirred well. The agar medium was transferred to a petri dish (diameter: 9 cm) and solidified at room temperature. The solidified agar medium was inoculated with 5 μl of the inoculum by means of a multipoint inoculator (Microplanter MIT-P27, supplied by Sakuma Seisakusho), followed by culturing at 37° C. for 72 hours under anaerobic conditions. The growth of the test microorganism was compared with a blank petri dish (the agar medium to which 100 μl of ethanol had been added). The lowest sample concentration that inhibited growth was taken as MIC (ppm).
(§5) Antimicrobial activities (MIC; ppm) of the aromahygiene base (AHB) prepared in (1) and the antimicrobial flavor compositions prepared in (2) (Examples 2-1 to 2-3) and Comparative Examples 2-1 to 2-3 were measured in the same manner as in Example 1 (2).

[2] = tested on: Streptococcus mutans JCM 5175; test: MIC by agar plate dilution method, Su-1; settings: for MIC: Streptococcus mutans, read-out: MIC Su-1 (caries-related bacteria)
Description: as §1, §2, §3, §4, §5

[3] = tested on: Actinomyces viscosus JCM 8352; test: MIC by agar plate dilution method, Av-1; settings: for MIC: Actinomyces viscosus, read-out: MIC Av-1 (caries-related bacteria)
Description: as §1, §2, §3, §4, §5

[4] = tested on: Porphyromonas gingivalis JCM 8525; test: MIC by agar plate dilution method, Pg-1; settings: for MIC: Porphyromonas gingivalis, read-out: MIC Pg-1 (paradentosis-related bacteria; head Fg-1 in Tables 2 and 3)
Description: as §1, §2, §3, §4, §5

[5] = tested on: Actinomyces naeslundii JCM 8350; test: MIC by agar plate dilution method, Aa-1; settings: for MIC: Actinomyces naeslundii, read-out: MIC Aa-1 (caries-related bacteria)
Description: as §1, §2, §3, §4, §5

[6] = tested on: Fusobacterium nucleatum JCM 6328; test: MIC by agar plate dilution method, Fn-1; settings: for MIC: Fusobacterium nucleatum, read-out: MIC Fn-1 (paradentosis-related bacteria)
Description: as §1, §2, §3, §4, §5

[7] = JCM6322, agar medium, 37° C., 72 hours, anaerobic conditions
[8] = JCM5175, agar medium, 37° C., 72 hours, anaerobic conditions
[9] = JCM8352, agar medium, 37° C., 72 hours, anaerobic conditions
[10] = JCM8525, agar medium, 37° C., 72 hours, anaerobic conditions
[11] = JCM8350, agar medium, 37° C., 72 hours, anaerobic conditions
[12] = JCM6328, agar medium, 37° C., 72 hours, anaerobic conditions
[13] = agar medium, 37° C., 72 hours, anaerobic conditions

Compound	MIC [1, 7] [µg/mL]	MIC [2, 8] [µg/mL]	MIC [3, 9] [µg/mL]	MIC [4, 10] [µg/mL]	MIC [5, 11] [µg/mL]	MIC [6, 12] [µg/mL]	MIC Pt-1 (paradentosis-related bacteria) [1, 13] [ppm]	MIC Su-1 (caries-related bacteria) [2, 13] [ppm]	MIC Av-1 (caries-related bacteria) [3, 13] [ppm]	MIC Pg-1 (paradentosis-related bacteria; head Fg-1 in Tables 2 and 3) [4, 13] [ppm]	MIC Aa-1 (caries-related bacteria) [5, 13] [ppm]	MIC Fn-1 (paradentosis-related bacteria) [6, 13] [ppm]	other results
CCCCCCCCC=CCC=O [3-Dodecenal]	31.3 (≈ 172 µM)	1000 (≈ 5490 µM)	500 (≈ 2740 µM)	62.5 (≈ 343 µM)	500 (≈ 2740 µM)	250 (≈ 1370 µM)							
CC/C(=C\C[C@H]1CC=C(C)C1(C)C)CO [Levosandol]							31.3	125	62.5	31.3	62.5	62.5	
COC(=O)c1c(C)cc(O)c(C)c1O [Methyl atrarate]							62.5	>1000	62.5	31.3	62.5	125	
CC(=O)c1cc2c(cc1C)C(C)(C)C(C)C2(C)C (stereo not drawn) [Phantolid]							62.5	>1000	>1000	31.3	>1000	>1000	
CCCc1ccc(O)c(OC)c1 [Dihydroeugenol]							62.5	1000	500	62.5	500	500	
CC(C=O)Cc1ccc(C(C)(C)C)cc1 (stereo not drawn) [Lilial]							62.5	500	500	62.5	125	500	
C=CCCCCCCCCCO [10-undecen-1-ol]	31.3 (≈ 184 µM)	250 (≈ 1470 µM)	125 (≈ 734 µM)	31.3 (≈ 184 µM)	125 (≈ 734 µM)	125 (≈ 734 µM)							
CC1=CCC(C/C=C(\C)CO)C1(C)C (stereo not drawn) [Santalinol]							31.3	250	62.5	15.6	62.5	125	
C=CC(C)(O)CC/C=C(\C)CCC=C(C)C (stereo not drawn) [Neroridol]							31.3	500	125	31.3	125	50	
O=C1CCCC=CCCCCCCCCCC1 [5-cyclohexadecen-1-one]	31.3 (≈ 132 µM)	> 1000	> 1000	15.6 (≈ 66 µM)	> 1000	> 1000							
Isocamphylcyclohexanol							3.9	31.3	31.3	3.9	31.3	31.3	
O=C1CCCCCCCCCCCCCC1 [Cyclopentadecanone]													MIC ([1]; JCM6322, 72 h): < 62.5 µg/mL; MIC ([2]; JCM5175, 72 h): > 1000 µg/mL; MIC ([3]; JCM8352, 72 h): > 1000 µg/mL; MIC ([4]; JCM8525, 72 h): < 62.5 µg/mL; MIC ([5]; JCM8350, 72 h): > 1000 µg/mL; MIC ([6]; JCM6328, 72 h): > 1000 µg/mL
CC(C)Cc1ccc2ncccc2c1 [Isobutyl quinoline]							250	1000	250	62.5	250	1000	
CCCCCCCCCCCC=O [Dodecanal]	62.5 (≈ 339 µM)	500 (≈ 2710 µM)	500 (≈ 2710 µM)	62.5 (≈ 339 µM)	500 (≈ 2710 µM)	125 (≈ 678 µM)							
COc1ccccc1C=CC=O [o-Methoxycinnamic aldehyde]							62.5	250	250	7.8	250	250	
CCCCCCCCCO [1-nonanol]	250 (≈ 1730 µM)	1000 (≈ 6930 µM)	500 (≈ 3470 µM)	250 (≈ 1730 µM)	500 (≈ 3470 µM)	500 (≈ 3470 µM)							
CC1=CCC(CCC(C)C(C)O)C1(C)C (stereo not drawn) [Sandalore]							31.3	250	125	31.3	125	125	
C=CCCCCCCCCO [9-decen-1-ol]	62.5 (≈ 400 µM)	1000 (≈ 6400 µM)	250 (≈ 1600 µM)	125 (≈ 800 µM)	250 (≈ 1600 µM)	250 (≈ 1600 µM)							
C[C@@H]1CC[C@H]2C(C)(C)[C@H]3C[C@@]12CC[C@@]3(C)O [Cedrol]	31.3 (≈ 141 µM)	> 1000	> 1000	31.3 (≈ 141 µM)	> 1000	> 1000							
